# From ChEMBL document CHEMBL1147387, “A cytotoxic beta-carboline from the bryozoan Catenicella cribraria” (1993)
# Experiment: Cytotoxicity against human NCI60 cells
# Format: functional
smiles,measurement,setting,value
C=Cc1nccc2c1[nH]c1c(O)cccc12,GI50,,1.8 µM
same,TGI,,5.8 µM
same,CC50,read-out: LC50 (the source's name),19 µM
